Values quoted from earlier work, collected in patent publication US9554996B2, “Compositions and methods for delivery of poorly soluble drugs” (Nanotherapeutics, Inc., priority 2007, dated 2017).
Counter-ions that a name gives are not always drawn.

Conditions: water

Question: For `COc1ccc2c3c1O[C@H]1C(=O)CC[C@@]4(O)[C@@H](C2)N(C)CC[C@]314` [oxycodone hydrochloride, oxycodone], which “solubility at neutral pH” value is on record?
Answer: 100 mg/ml
